Values quoted from earlier work, collected in patent publication US20160243064A1, “NOVEL ORAL PHARMACEUTICAL COMPOSITIONS OF TREPROSTINIL” (Gavis Pharmaceuticals, priority 2015, published 2016).

Conditions: free acid, as taught by the cited US patents

Question: Which oral absolute bioavailability does the source give for `CCCCC[C@H](O)CC[C@@H]1[C@H]2Cc3cccc(OCC(=O)O)c3C[C@H]2C[C@H]1O` [treprostinil] here?
Answer: Its oral absolute bioavailability is “less than 10%”.
